Our source for the GI50 and TGI values is PubChem BioAssay (NCI).

Holding throughout (test): inhibition of tumour cell growth, NCI panel, 48 h
Assay [1] has as its system SK-MEL-28 melanoma.
The subject of assay [2] is A549 NSCLC.
Assay [3] concerns ACHN renal.
Assay [4] relates to SR leukemia.
Assay [5] deals with SNB-19 CNS.
Assay [6] has as its system HT29 colon.
For assay [7], the system named is OVCAR-3 ovarian.
The subject of assay [8] is PC-3 prostate.
In assay [9] the test system is TK-10 renal.
The test system of assay [10] is UACC-257 melanoma.

Several values for one entry are separate records, joined by “and”; a condition that tells them apart may be missing. Identical values can stand only once.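 Grown in 96-well plates, cells were treated for 48 hours with each compound at five concentrations. Insufficient inhibition: endpoint recorded as highest concentration tested. The concentration for 50% growth inhibition is given as GI50. TGI marks complete inhibition of growth.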

Regarding `O=C(O[C@H]1CN[C@H](C#Cc2cc3ncnc(Nc4ccc(Cc5ccccc5)cc4)c3s2)C1)N1CCOCC1`, the GI50 in assay [1] was 4.78 µM; in [2], 4.86 µM; in assay [3], 3.53 µM; in assay [4] it was 11.2 µM; in [5] it was 7.73 µM; in assay [6], 4.71 µM. The GI50 in [7] was 3.85 µM; in assay [8], 8.56 µM; in assay [9], 0.548 µM; in assay [10] it was 5.46 µM. Further, the TGI in [1] was 10.9 µM; in assay [2] it was greater than 25 µM; in assay [3], greater than 25 µM; in assay [4], greater than 25 µM; in assay [5], greater than 25 µM; in assay [6] it was 10.7 µM. The TGI in [7] is 11 µM; in assay [8], greater than 25 µM; in [9] it was 4.97 µM; in [10], greater than 22.1 µM.

As for `O=[N+]([O-])c1ccc(Oc2cccnc2)c([N+](=O)[O-])c1`, the GI50 is 9.49 µM in assay [1]; 3.34 µM in assay [3]; 4.19 µM in assay [4]; 24.3 µM in [5]; 3.5 µM in assay [6]; 2.75 µM in assay [7]. The values for the GI50 in assay [8] and in assay [10] were 4.98 µM and 8.81 µM, respectively. For the same molecule, the TGI in assay [1] was 23.9 µM; in assay [3], 13 µM; in assay [4] it was greater than 100 µM; in [5], greater than 100 µM; in assay [6] it was 13.8 µM; in [7] it was 6.99 µM. In addition, the values for the TGI in assay [8] and in [10] were 36.4 µM and 22.3 µM, respectively.

`O=S(=O)(c1ccc2c(c1)C(=NO)c1cc(S(=O)(=O)N3CCCCC3)ccc1-2)N1CCCCC1`: the GI50 in assay [1] was 0.346 µM and 0.177 µM; in assay [2], > 1 µM and 0.187 µM; in assay [3], 0.188 µM and 0.163 µM; in assay [5], 0.303 µM and 0.184 µM; in assay [6], 0.856 µM and 0.194 µM; in assay [7] it was 0.87 µM and 0.177 µM. The GI50 in assay [8] is 0.263 µM and 0.171 µM; in [9], 0.669 µM and 0.177 µM; in [10], 0.17 µM. Besides, the TGI was > 1 µM and 0.326 µM in assay [1]; > 1 µM and 0.371 µM in [2]; 0.389 µM and 0.319 µM in assay [3]; 0.962 µM and 0.326 µM in assay [5]; > 1 µM and 0.4 µM in [6]; > 1 µM and 0.321 µM in assay [7]. For the same molecule, the TGI in assay [8] was 0.812 µM and 0.381 µM; in assay [9], > 1 µM and 0.319 µM; in assay [10], 0.32 µM.

On to `NC(=O)c1ncn(C2OC(CO)C(O)C2O)n1` (centres undefined), for which the GI50 is greater than 100 µM in [1]; 62 µM in assay [2]; 59.8 µM in assay [3]; greater than 100 µM in assay [4]; 14.2 µM in [6]; 74.9 µM in assay [7]. Also, the GI50 in assay [8] is 59.6 µM; in assay [9], greater than 100 µM; in assay [10], greater than 100 µM. Also, the TGI in assay [1], in assay [2], in assay [3], in [4], in assay [6] and in [7] was greater than 100 µM each time. Further, the TGI in assay [8], in [9] and in [10] was greater than 100 µM throughout.

As for `Oc1c(Cl)cc(C(c2cc(Cl)c(O)c(Cl)c2)C(c2cc(Cl)c(O)c(Cl)c2)c2cc(Cl)c(O)c(Cl)c2)cc1Cl`, the GI50 was 5.27 µM in [1]; 3.73 µM in assay [2]; 5.21 µM in [3]; 3.51 µM in [5]; 4.36 µM in assay [6]; 3.12 µM in [7]. The GI50 in [9] is 7.05 µM; in assay [10] it was 7.75 µM. In addition, the TGI was 54.3 µM in [1]; 36.4 µM in [2]; 20.3 µM in assay [3]; 17.3 µM in [5]; 16.3 µM in assay [6]; 11.9 µM in assay [7]. The figures for the TGI in assay [8], in assay [9] and in [10] were 13.8 µM, 21.5 µM and 23.9 µM, respectively.

As to `O=[n+]1cnn([O-])c2ccccc21`, the TGI in [1] is greater than 100 µM; in assay [2] it was greater than 100 µM; in [3], 36.9 µM; in assay [4] it was greater than 100 µM; in assay [5] it was greater than 100 µM; in assay [6], 40.4 µM. Moreover, the TGI was greater than 100 µM in [8], greater than 100 µM in assay [9] and 37.1 µM in assay [10].

With `Nc1ccn(C2OC(CO[P+](=O)OC3C(CO[P+](=O)OC4C(CO[P+](=O)OC5C(CO[P+](=O)OC6C(CO[P+](=O)OC7C(CO[P+](=O)OC8C(CO[P+](=O)OC9C(CO[P+](=O)OC%10C(CO[P+](=O)OC%11C(CO)OC(n%12ccc(N)nc%12=O)C%11(F)F)OC(n%11ccc(N)nc%11=O)C%10(F)F)OC(n%10ccc(N)nc%10=O)C9(F)F)OC(n9ccc(N)nc9=O)C8(F)F)OC(n8ccc(N)nc8=O)C7(F)F)OC(n7ccc(N)nc7=O)C6(F)F)OC(n6ccc(N)nc6=O)C5(F)F)OC(n5ccc(N)nc5=O)C4(F)F)OC(n4ccc(N)nc4=O)C3(F)F)C(O)C2(F)F)c(=O)n1` (centres undefined), the GI50 in assay [1] is greater than 100 µM; in assay [6], 1.32 µM; in assay [8], 80.5 µM; in assay [9], greater than 100 µM; in [10] it was 0.859 µM. For the same molecule, the TGI was greater than 100 µM in [1]; greater than 100 µM in assay [2]; 0.507 µM in assay [4]; greater than 100 µM in assay [5]; greater than 100 µM in [6]; greater than 100 µM in assay [7]. The TGI in assay [8] and in [9] was greater than 100 µM throughout.

With `Cc1cc(NC(=O)NC(=O)c2ccccc2[N+](=O)[O-])ccc1Oc1ncc(Cl)cn1`, the TGI in [1] is 98 µM; in assay [2], greater than 100 µM; in assay [3], 42.1 µM; in assay [5], greater than 66.2 µM; in assay [6], 3.38 µM; in [7], 1.34 µM. Also, the values for the TGI in assay [8], in assay [9] and in assay [10] were 94.5 µM, greater than 65.2 µM and greater than 100 µM, respectively.

For the molecule `C=CC[Se]C(=O)c1ccccc1OC(C)=O`, the GI50 in assay [1] was 1.85 µM; in [2] it was 0.769 µM; in [3] it was 1.76 µM; in assay [4], 2.41 µM; in assay [5] it was 0.493 µM; in assay [6] it was 2.65 µM. Moreover, the GI50 in assay [7] is 1.95 µM; in [8], 0.717 µM; in [10], 2.09 µM. Further, the TGI in [1] was 3.53 µM; in assay [2], greater than 100 µM; in assay [3], 3.21 µM; in [4], 19.2 µM; in assay [5], 1.66 µM; in assay [6] it was greater than 100 µM. For the same molecule, the TGI is 3.51 µM in assay [7], 2.48 µM in [8] and 5 µM in assay [10].

`Cc1oncc1C(=O)Nc1ccc(C(F)(F)F)cc1`: the GI50 in assay [1] was 56.7 µM; in [2], 39.8 µM; in assay [3], 41.7 µM; in [5], greater than 100 µM; in assay [6], 66.3 µM; in [7], 20.8 µM. The results for the GI50 in [8], in assay [9] and in [10] were 13.9 µM, greater than 100 µM and 26.9 µM, respectively. The TGI in [1] was greater than 100 µM; in [2], greater than 100 µM; in assay [3] it was greater than 100 µM; in [5], greater than 100 µM; in [6], greater than 100 µM; in [7], 78.7 µM. For the same molecule, the TGI in assay [8], in assay [9] and in [10] was greater than 100 µM in each case.

Take `NC(=O)c1cccc(N)c1`: the GI50 in assay [1], in assay [2], in [3], in [4], in assay [5] and in [6] was greater than 100 µM each time. The GI50 in assay [7], in [8] and in assay [9] was greater than 100 µM each time. The TGI in [1], in assay [2], in assay [3], in assay [4], in [5] and in [6] was greater than 100 µM each time. Also, the TGI in [7], in [8] and in assay [9] was greater than 100 µM each time.

For the molecule `COc1cc(-c2nn(C)nc2-c2cc3ccccc3s2)cc(OC)c1OC`, the GI50 was 13 µM in assay [1]; 0.169 µM in assay [2]; 0.293 µM in [3]; 0.254 µM in [5]; 0.0558 µM in [6]; 0.0354 µM in assay [7]. The GI50 in [8] was 0.0779 µM; in assay [9] it was 0.578 µM; in assay [10], 51.5 µM. The TGI was greater than 100 µM in assay [1]; greater than 100 µM in assay [2]; greater than 100 µM in [3]; greater than 100 µM in [5]; 0.393 µM in [6]; 0.77 µM in assay [7]. The TGI in assay [8], in assay [9] and in assay [10] was greater than 100 µM in each case.

`Clc1ccc(-c2nc(-c3c[nH]c4ncccc34)cs2)cc1`: the GI50 in [1], in [2], in assay [3], in [5], in [6] and in assay [7] was greater than 100 µM each time. In addition, the GI50 in [8], in [9] and in assay [10] was greater than 100 µM each time. Also, the TGI in [1], in assay [2], in assay [3], in assay [5], in assay [6] and in assay [7] was greater than 100 µM in each case. For the same molecule, the TGI in assay [8], in [9] and in assay [10] was greater than 100 µM each time.

On to `NCC(=O)Nc1ccc(-n2nc(C(F)(F)F)cc2-c2ccc3c(ccc4ccccc43)c2)cc1`, for which the GI50 in assay [1] is 1.45 µM; in [2] it was 0.959 µM; in [3], 1.23 µM; in [4], 0.342 µM; in assay [6], 0.937 µM; in assay [7], 1.34 µM. Besides, the results for the GI50 in [8], in assay [9] and in assay [10] were 1.24 µM, 1.49 µM and 1.66 µM, respectively. In addition, the TGI in [1] came out at 2.81 µM; in [2], 2.41 µM; in assay [3], 2.54 µM; in [4], 2.35 µM; in assay [6], 2.27 µM; in assay [7], 2.65 µM. Moreover, the TGI was found to be 2.66 µM in assay [8], 2.87 µM in assay [9] and 3.31 µM in [10].

For the molecule `CCCCN(CCCC)c1cc(C(=O)CCCCCN)c2ccccc2n1`, the GI50 in [1] was 1.91 µM; in [2], 1.78 µM; in assay [3], 1.76 µM; in assay [5] it was 1.65 µM; in assay [6] it was 2 µM; in assay [7], 2.02 µM. The GI50 is 2.56 µM in assay [8], 1.94 µM in [9] and 1.76 µM in assay [10]. The TGI worked out at 3.37 µM in assay [1]; 3.38 µM in assay [2]; 3.14 µM in assay [3]; 3.12 µM in assay [5]; 3.57 µM in assay [6]; 3.79 µM in assay [7]. The TGI in [8] worked out at 6.07 µM; in assay [9], 3.5 µM; in assay [10], 3.5 µM.

`O=C(Nc1cccc(-n2cc(-c3ccncc3)c(-c3cc(O)cc(Cl)c3)n2)c1)Nc1ccc(Cl)c(Cl)c1`: the GI50 in [1] is 2.14 µM; in assay [2] it was 1.96 µM; in [3] it was 2.21 µM; in assay [4] it was 1.31 µM; in assay [5], 3.18 µM; in assay [6], 1.92 µM. In addition, the GI50 in [7] is 1.96 µM; in assay [8], 1.69 µM; in assay [10], 1.95 µM. For the same molecule, the TGI was 5.55 µM in assay [1]; 7.54 µM in assay [2]; 8.71 µM in assay [3]; 4.24 µM in [4]; 19 µM in [5]; 3.9 µM in assay [6]. In addition, the TGI came to 5.05 µM in [7], 5.68 µM in assay [8] and 4.3 µM in assay [10].
